# Structures can show the parent of a compound that is named as a salt.
# Molecular target: T1, human CRF1 receptor (Homo sapiens, UniProt P34998)
# T1 construct: expressed in transfected cells; host or cells: CHO cells (membrane fraction)
# T1 sequence (P34998 24-415): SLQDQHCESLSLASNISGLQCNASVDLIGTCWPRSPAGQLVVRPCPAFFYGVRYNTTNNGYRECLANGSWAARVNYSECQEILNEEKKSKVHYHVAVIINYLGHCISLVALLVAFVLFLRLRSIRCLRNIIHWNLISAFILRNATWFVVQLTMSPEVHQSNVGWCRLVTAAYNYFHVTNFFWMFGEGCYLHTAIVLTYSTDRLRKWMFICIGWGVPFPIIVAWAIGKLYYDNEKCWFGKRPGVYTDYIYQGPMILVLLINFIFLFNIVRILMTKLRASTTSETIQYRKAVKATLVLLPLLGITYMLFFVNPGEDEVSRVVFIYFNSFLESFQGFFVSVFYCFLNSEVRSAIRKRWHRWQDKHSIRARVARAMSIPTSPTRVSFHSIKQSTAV
# Experiment: Measurement of CRF Binding Inhibitory Rate (receptor binding experiment with 125I-CRF)
# Details: human CRF1 receptor expressing CHO cellular membrane fraction, 50 pM 125I-CRF, room temperature 1.5 hr, 0.05 nM to 10 μM of compound; read-out: IC50 values (CRF binding inhibition)
# Procedure: Measurement of CRF Binding Inhibitory Rate
# A receptor binding experiment was carried out using a human CRF1 receptor expressing CHO cellular membrane fraction and ovine CRF, [^125I]-tyr^0(^125I-CRF). 1000 nM of a test compound was incubated with 1 μg of human CREF receptor expressing CHO cellular membrane fraction and 50 pM of ^125I-CRF in a binding assay buffer (50 mM Tris-HCl, 5 mM EDTA, 10 mM MgCl2, 0.05% CHAPS, 0.1% BSA, 0.5 mM PMSF, 0.1 μg/mL pepstatin, 20 μg/mL leupeptin, pH 7.5). In addition, for measuring nonspecific binding (NSB), 0.1 μM unlabelled human Urocortin was incubated with 5 μg of human CRE receptor expressing CHO cellular membrane fraction and 50 pM of ^125I-CRF in a binding assay buffer. After a binding reaction was carried out at room temperature for 1.5 hr, the membrane was entrapped on a glass filter (UniFilter plate GF-C/Perkin Elmer) by suction filtration using a cell harvester (Perkin Elmer), and washed with ice-cooled 50 mM Tris-HCl (pH 7.5). After drying the glass filter, a liquid scintillation cocktail (Microscinti 0, Perkin Elmer) was added, and the radioactivity of ^125I-CRF remaining on a glass filter was measured using Topcount (Perkin Elmer).
# (TB−SB)/(TB−NSB)×100 (SB: radioactivity when a compound is added, TB: maximum binding radioactivity, NSB: nonspecific binding radioactivity) were calculated to obtain binding inhibitory rates under the range of the presence from 0.05 nM to 10 μM of each compound. The IC50 values were calculated by using GraphPad Prism software.
row,SMILES,IC50
1,"CC(C)C(O)c1ccc(Cl)c2nc3n(c12)CCCN3c1ccc(Cl)cc1Cl (stereo not shown) [Example 234, 1-[9-Chloro-1-(2,4-dichlorophenyl)-1,2,3,4-tetrahydropyrimido[1,2-a]benzimidazol-6-yl]-2-methylpropan-1-ol]",< 1 µM
2,"CCC(OC(C)=O)c1ccc(Cl)c2nc3n(c12)CCCN3c1ccc(OC)nc1C (single isomer, unassigned; (-)) [Example 266, (−)-1-[9-Chloro-1-(6-methoxy-2-methylpyridin-3-yl)-1,2,3,4-tetrahydropyrimido[1,2-a]benzimidazol-6-yl]propyl acetate]",< 1 µM
3,"CCOc1ccc(N2CCCn3c2nc2c(Cl)ccc(C(OC(F)F)C(F)(F)F)c23)c(C)n1 (stereo not shown) [Example 287, 9-Chloro-6-[1-(difluoromethoxy)-2,2,2-trifluoroethyl]-1-(6-ethoxy-2-methylpyridin-3-yl)-1,2,3,4-tetrahydropyrimido[1,2-a]benzimidazole]",< 1 µM
4,"CCC(O)c1ccc(Cl)c2nc3n(c12)CCCN3c1c(C)cc(Cl)cc1Cl (stereo not shown) [Example 379, 1-[9-Chloro-1-(2,4-dichloro-6-methylphenyl)-1,2,3,4-tetrahydropyrimido[1,2-a]benzimidazol-6-yl]propan-1-ol]",< 1 µM
5,"CCC(CC)c1ccc(Cl)c2nc3n(c12)CCN3c1ncc(C(F)(F)F)cc1Cl [Example 225, 8-Chloro-1-[3-chloro-5-(trifluoromethyl)pyridin-2-yl]-5-(1-ethylpropyl)-2,3-dihydro-1H-imidazo[1,2-a]benzimidazole]",< 1 µM
6,"CCN(CC)c1cccc2nc3n(c12)CC(N=[N+]=[N-])CCN3c1ccc(Cl)cc1Cl (stereo not shown) [Example 361, 4-Azido-1-(2,4-dichlorophenyl)-N,N-diethyl-2,3,4,5-tetrahydro-1H-[1,3]diazepino[1,2-a]benzimidazol-7-amine]",< 1 µM
7,"CCC(OC(C)=O)c1ccc(Cl)c2nc3n(c12)CCCN3c1ccc(S(C)(=O)=O)cc1Cl (stereo not shown) [Example 254, 1-{9-Chloro-1-[2-chloro-4-(methylsulfonyl)phenyl]-1,2,3,4-tetrahydropyrimido[1,2-a]benzimidazol-6-yl}propyl acetate]",< 1 µM
8,"CCC(OCCOC)c1cccc2nc3n(c12)CCCN3c1ccc(Cl)cc1Cl (stereo not shown) [Example 94, 1-(2,4-Dichlorophenyl)-6-[1-(2-methoxyethoxy)propyl]-1,2,3,4-tetrahydropyrimido[1,2-a]benzimidazole]",< 1 µM
9,"CC(=O)NC(c1ccc(Cl)c2nc3n(c12)CCCN3c1c(Cl)cc(Cl)cc1Cl)C(F)(F)F (stereo not shown) [Example 415, N-{1-[9-Chloro-1-(2,4,6-trichlorophenyl)-1,2,3,4-tetrahydropyrimido[1,2-a]benzimidazol-6-yl]-2,2,2-trifluoroethyl}acetamide]",< 1 µM
10,"CCC(CC)c1ccc(Cl)c2nc3n(c12)CCCCN3c1ccc(OC(F)(F)F)cc1CN(C)C [Example 42, 1-[2-[10-Chloro-7-(1-ethylpropyl)-2,3,4,5-tetrahydro-1H-[1,3]diazepino[1,2-a]benzimidazol-1-yl]-5-(trifluoromethoxy)phenyl]-N,N-dimethylmethanamine hydrochloride]",< 1 µM
11,"C=CCCC(O)c1ccc(Cl)c2nc3n(c12)CCCN3c1c(C)cc(Cl)cc1Cl (stereo not shown) [Example 381, 1-[9-Chloro-1-(2,4-dichloro-6-methylphenyl)-1,2,3,4-tetrahydropyrimido[1,2-a]benzimidazol-6-yl]pent-4-en-1-ol]",< 1 µM
12,CCOC(c1ccc(Cl)c2nc3n(c12)CCCN3c1ccc(OC)cc1Cl)C(F)(F)F (stereo not shown) [Example 470],< 1 µM
13,"CCC(OC(=O)CC(C)(C)O)c1ccc(Cl)c2nc3n(c12)CCCN3c1ccc(Cl)cc1Cl (stereo not shown) [Example 444, 1-[9-Chloro-1-(2,4-dichlorophenyl)-1,2,3,4-tetrahydropyrimido[1,2-a]benzimidazol-6-yl]propyl 3-hydroxy-3-methylbutanoate]",< 1 µM
14,"FC(F)(F)C(Cl)c1ccc(Cl)c2nc3n(c12)CCCN3c1c(Cl)cc(Cl)cc1Cl (stereo not shown) [Example 412, 9-Chloro-6-(1-chloro-2,2,2-trifluoroethyl)-1-(2,4,6-trichlorophenyl)-1,2,3,4-tetrahydropyrimido[1,2-a]benzimidazole]",< 1 µM
15,"C=CCC(O)c1ccc(Cl)c2nc3n(c12)CCCN3c1c(C)cc(Cl)cc1Cl (stereo not shown) [Example 383, 1-[9-Chloro-1-(2,4-dichloro-6-methylphenyl)-1,2,3,4-tetrahydropyrimido[1,2-a]benzimidazol-6-yl]but-3-en-1-ol]",< 1 µM
16,"CCC(c1ccc(Cl)c2nc3n(c12)CCCN3c1ccc(Cl)cc1Cl)N(C)C(C)=O (stereo not shown) [Example 388, N-{1-[9-Chloro-1-(2,4-dichlorophenyl)-1,2,3,4-tetrahydropyrimido[1,2-a]benzimidazol-6-yl]propyl}-N-methylacetamide]",< 1 µM
17,"FC(F)COC(c1ccc(Cl)c2nc3n(c12)CCCN3c1ccc(Cl)cc1Cl)C1CC1 (stereo not shown) [Example 464, 9-Chloro-6-[cyclopropyl(2,2-difluoroethoxy)methyl]-1-(2,4-dichlorophenyl)-1,2,3,4-tetrahydropyrimido[1,2-a]benzimidazole]",< 1 µM
18,"COC(=O)c1ccc(Cl)c2nc3n(c12)CCCCN3c1ccc(OC)cc1Cl [Example 330, Methyl 10-chloro-1-(2-chloro-4-methoxyphenyl)-2,3,4,5-tetrahydro-1H-[1,3]diazepino[1,2-a]benzimidazole-7-carboxylate]",< 1 µM
19,"CCC(CC)c1ccc(Cl)c2nc3n(c12)CCCCN3c1ccc(OC(F)(F)F)cc1C=O [Example 41, 2-[10-Chloro-7-(1-ethylpropyl)-2,3,4,5-tetrahydro-1H-[1,3]diazepino[1,2-a]benzimidazol-1-yl]-5-(trifluoromethoxy)benzaldehyde]",< 1 µM
20,"Cc1cc(S(C)(=O)=O)ccc1N1CCCn2c1nc1c(Cl)ccc(C(OC(F)F)C(F)(F)F)c12 (stereo not shown) [Example 477, 9-Chloro-6-[1-(difluoromethoxy)-2,2,2-trifluoroethyl]-1-[2-methyl-4-(methylsulfonyl)phenyl]-1,2,3,4-tetrahydropyrimido[1,2-a]benzimidazole]",< 1 µM
21,"CCC(OC(=O)C(C)C)c1ccc(Cl)c2nc3n(c12)CCCN3c1ccc(Cl)cc1Cl (stereo not shown) [Example 480, 1-[9-Chloro-1-(2,4-dichlorophenyl)-1,2,3,4-tetrahydropyrimido[1,2-a]benzimidazol-6-yl]propyl 2-methylpropanoate]",< 1 µM
22,"CCC(CC)c1ccc(Cl)c2nc3n(c12)CCN3c1ccc(C=O)cc1Cl [Example 16, 3-Chloro-4-[8-chloro-5-(1-ethylpropyl)-2,3-dihydro-1H-imidazo[1,2-a]benzimidazol-1-yl]benzaldehyde]",< 1 µM
23,"CCC(C(C)=O)c1ccc(Cl)c2nc3n(c12)CCCN3c1ccc(Cl)cc1Cl (stereo not shown) [Example 405, 3-[9-Chloro-1-(2,4-dichlorophenyl)-1,2,3,4-tetrahydropyrimido[1,2-a]benzimidazol-6-yl]pentan-2-one]",< 1 µM
24,"CCC(CC)c1ccc(Cl)c2nc3n(c12)CCCCN3c1ccc(OC(F)(F)F)cc1 [Example 40, 10-Chloro-7-(1-ethylpropyl)-1-[4-(trifluoromethoxy)phenyl]-2,3,4,5-tetrahydro-1H-[1,3]diazepino[1,2-a]benzimidazole]",< 1 µM
25,"CCC(c1ccc(Cl)c2nc3n(c12)CCCN3c1ccc(Cl)cc1Cl)C(F)F (stereo not shown) [Example 403, 9-Chloro-1-(2,4-dichlorophenyl)-6-[1-(difluoromethyl)propyl]-1,2,3,4-tetrahydropyrimido[1,2-a]benzimidazole]",< 1 µM
26,"CCC(=O)c1cccc2nc3n(c12)CCCCN3c1ccc(Cl)cc1Cl [Example 69, 1-[1-(2,4-Dichlorophenyl)-2,3,4,5-tetrahydro-1H-[1,3]diazepino[1,2-a]benzimidazol-7-yl]propan-1-one]",< 1 µM
27,"CCC(c1ccc(Cl)c2nc3n(c12)CCCN3c1ccc(OC)nc1C)C(F)F (stereo not shown) [Example 303, 9-Chloro-6-[1-(difluoromethyl)propyl]-1-(6-methoxy-2-methylpyridin-3-yl)-1,2,3,4-tetrahydropyrimido[1,2-a]benzimidazole]",< 1 µM
28,"CCC(CC)c1ccc(Cl)c2nc3n(c12)CCN3c1c(C)cc(Cl)cc1OC [Example 1, 8-Chloro-1-(4-chloro-2-methoxy-6-methylphenyl)-5-(1-ethylpropyl)-2,3-dihydro-1H-imidazo[1,2-a]benzimidazole]",< 1 µM

# Reference: patent US8785460B2, “Tricyclic compounds and use thereof” (Takeda Pharmaceutical Company Limited, priority 2008, dated 2014)
